Measurements as given in a melting point compilation (Tetko et al.; mined from patent text by program, amines drawn as free bases though some values may be those of a salt).

| melting point | SMILES |
| --- | --- |
| 146 °C | CC(NC(=O)OCc1ccccc1)NC(=O)C1C(C)(C)CCC1(C)C (stereo not given) |
| 206 to 207 °C | COc1ccc(CNC(=O)c2cn3c(=O)n(Cc4ccc(Cl)c(Cl)c4)c(=O)cc3s2)cc1 |
| 164 °C | Cn1c(NC(=O)OCc2ccccc2)c(-c2ccccc2)c2cc(Cl)ccc21 |
| 201 to 203 °C | Cc1ccc(C2c3c(C)c(N4Cc5cc(Cl)c(Cl)cc5C4)c(C)c(C)c3OC2(C)C)cc1 (stereo not given) |
| 190 °C | CCCCCCCCCCCCCCCCSC(=O)Nc1ccc(NC(=O)NS(=O)(=O)c2ccc3ccccc3c2)cc1 |
| 145 to 146 °C | FC(F)C(F)(F)Sc1nc(-c2ccccc2)c(-c2ccccc2)n1C1CCCO1 (stereo not given) |
| 130 to 134 °C | CC1(C)CC(=NO)c2cc(-c3ccccc3)ccc2O1 |
| 270 to 273 °C | COCCn1cc2c(C3C(=O)Nc4ccc(Br)cc43)nc(NCCC3CCCNC3)nc2n1 (stereo not given) |
| 101 to 102 °C | Cc1cc(C)c(C(CO)c2ccc(C(C)C)cc2)c(O)c1C (stereo not given) |
| 200 to 202 °C | COc1ccc(C(=O)O)c([N+](=O)[O-])c1OC |
| 100 to 106 °C | O=C(c1cccs1)c1cnn2c(-c3cccc(-c4ccc(CNCCN5CCOCC5)cc4)c3)ccnc12 |
| 152 to 154 °C | CC(C)N(C(=S)NC(=O)c1ccccc1)c1ccc2c(c1)OCO2 |
| 136 °C | Clc1ccc2nc3n(c2c1)CCC3 |
| 66 to 68 °C | CNc1ccccc1C(=O)c1ccccc1 |
| 172 to 174 °C | CC1(C)CS(=O)(=O)c2sc(S(N)(=O)=O)cc2C1O (stereo not given) |
| 148 to 150 °C | Cc1ccc(CC(=O)NCc2cccc3c2C(=O)N(C2CCC(=O)NC2=O)C3=O)cc1F (stereo not given) |
| 119 to 121 °C | CCN1C(=O)C(C(=O)Nc2cccc(C(=O)Nc3ccc(Cl)cc3)c2)c2cc(C(C)=O)ccc21 (stereo not given) |
| 64.9 to 66.2 °C | c1ccc(CSc2ncnc3ccccc23)nc1 |
| 165 to 167 °C | O=C1CC[C@H](CC(c2ccc(S(=O)(=O)C3CC3)cc2)c2ccc(-c3nccs3)[nH]2)C1 (stereo not given in full) |
| 163 to 166 °C | COc1ccccc1N1CCN(CC2Cc3cc(C)c4[nH]c(=O)ccc4c3O2)CC1 (stereo not given) |
| 179 to 180 °C | CCCOc1ccc(Br)cc1-c1nc2c(C)cccc2c(=O)[nH]1 |
| 100 to 105 °C | COc1cc2c(cc1OC)CN(CCCCc1ccc(NC(=O)c3cnc4cc(C)c(C)cc4n3)cc1)CC2 |
| 115 to 117 °C | COc1cccc(-c2cc(=O)cc(N3CCOCC3)o2)c1 |
| 113 °C | COc1cc(C(=O)CCCN2CCC(OC(=O)c3cc(Cl)c(N)c4c3OCCC4)CC2)cc(OC)c1OC |

| melting point | SMILES |
| --- | --- |
| 250 to 252 °C | O=C1CC[C@@H](C(=O)N[C@@H](Cc2c[nH]cn2)C(=O)N[C@@H](Cc2c[nH]c3ccccc23)C(=O)OCc2ccccc2)N1 |
| 157 to 158 °C | C=C1CC2C(=CCC3(C)C2CC(C)C3(O)C(C)=O)C2(C)CCC(=O)C=C12 (stereo not given) |
| 190 to 191 °C | COc1cc(C(=O)O)ccc1C(C)c1c[nH]c2ccc(C(=O)NCCC(C)C)cc12 (stereo not given) |
| 72 °C | O=C(Cc1cc(F)ccc1[N+](=O)[O-])N1CCN(c2nsc3ccccc23)CC1 |
| 101 to 103 °C | COc1ccc(CCNCC(O)c2cccc(Cl)c2)cc1 (stereo not given) |
| 174 °C | O=C(O)CSONC(=O)c1c(Cl)ccc2cc(Cl)cnc12 |
| 141 to 142 °C | CC1(C)OC(c2ccc(S(C)(=O)=O)cc2)=C(c2cc(F)cc(F)c2)C1=O |
| 272 °C | Cc1c(OCC2=NCCN2)ccc(Br)c1NS(C)(=O)=O |
| 123 to 124 °C | CC(C)c1ccc2c(c1)c(SCC1CC1)c(CC(C)(C)C(=O)O)n2Cc1ccc(Cl)cc1 |
| 130 to 132 °C | CN(C(=O)NCCO)C1c2ccccc2Oc2ccccc21 |
| 80 to 81 °C | COc1ccc(S(=O)(=O)Nc2cccnc2Nc2ccccc2C)cc1 |
| 203 °C | CC(=O)OC1CSC(Oc2cc(C)c(Cl)cc2-c2ccno2)C(OC(C)=O)C1OC(C)=O (stereo not given) |
| 165 to 170 °C | CCOc1ccc2c(OC(=O)C(F)(F)F)c3cc4ccccc4cc3c(OC(=O)C(F)(F)F)c2c1 |
| 64 to 67 °C | CC(C)(C)c1cc(CCc2ccccc2NC(=O)N2CCC(N3CCCCC3)CC2)cc(C(C)(C)C)c1O |
| 135 to 137 °C | O=C1CCCCC(c2ccccc2)N1 (stereo not given) |
| 184 to 185 °C | CC(C)(C(=O)O)S(=O)c1ccc2c(-c3ccc(Cl)cc3)noc2c1 (stereo not given) |
| 55 to 57 °C | CNCCCS(=O)(=O)CCCC(F)(F)C(F)(F)F |
| 70 to 72 °C | COc1ccc(Cn2nnc(-c3cccc(CO)c3)n2)cc1 |
| > 250 °C | N#Cc1cc(C[C@H](N)C(=O)O)ccc1O |
| 115 to 117 °C | COc1ccc(-c2cc3c(Br)c(OC)ccc3o2)cc1 |
| 133 to 135 °C | CCC(=C(c1ccccc1)c1ccc(C=CC(=O)OC)cc1)c1ccccc1 |
| 115 to 116 °C | CCOC(=O)C(=C1CCCN1C)c1cc(OC)c(OC)c(OC)c1 |
| 212 to 214 °C | COc1ccc(C=CC(=O)O)cc1-c1cc2c(cc1OCCCCCCCC(=O)O)C(C)(C)CCC2(C)C |
| 126 to 128 °C | CCOC(=O)C(=CNc1cn[nH]c1)C(C)=O |

| melting point | SMILES |
| --- | --- |
| 218 °C | Nc1nccc(Oc2ccc3c(C(=O)Nc4cccc(C(F)(F)F)c4)cccc3c2)n1 |
| 195 to 198 °C | O=C1CCC(c2ccc(Cl)c(C(F)(F)F)c2)=NN1 |
| 127 to 128 °C | CCOP(=O)(OCC)c1ccc2cc(I)cc(-c3cccc4ccccc34)c2n1 |
| 263 °C | O=C(Nc1nnn[nH]1)c1ccc(OCCn2ccnc2)cc1 |
| 79 to 80 °C | COc1cc(C(=O)c2ccc(OCc3ccccc3)cc2N)cc(OC)c1OC |
| 143 °C | N#CCCCc1ccccc1CC1C(=O)CCCC1=O |
| 167 to 168 °C | CC(=O)OCC1OC(Cl)C(N=[N+]=[N-])C(OC(C)=O)C1OC1OC(COC(C)=O)C(OC(C)=O)C(OC(C)=O)C1OC(C)=O (stereo not given) |
| 173 to 174 °C | Nc1cc2cccc(F)c2oc1=O |
| 112 to 114 °C | Cc1cc(Cl)c(C(=O)c2ccc(Cl)cc2)c(Cl)c1 |
| 115 °C | CNC(=S)C1(c2ccccn2)CCCO1 (stereo not given) |
| 202 to 204 °C | N#Cc1c(N2CCCCC2)cc(-c2cccc3ccccc23)c2c1C(=O)c1ccccc1-2 |
| 52.3 °C | CCOC(=O)CC(=O)c1ccncn1 |
| 127 to 128 °C | Cc1cnc2c(c1)C(=O)N(C(C)C)C2=O |
| 159 to 161 °C | CC(C)(C)OC(=O)[C@@](C)(C#N)[C@H](c1ccccc1C(F)(F)F)c1cccc2ccccc12 (racemic) |
| 158 to 160 °C | CCc1nn(-c2cc(NC(C)=O)ccc2Cl)c(=O)n1Cc1ccc(-c2ccccc2S(=O)(=O)NC(=O)OC(C)(C)C)cc1F |
| 68 to 72 °C | CC(=O)Nc1ccc(C(C)=O)cc1CN(C)C |
| 176 to 180 °C | COc1ccc2c(c1)c(CC(=O)O)c(C)n2Cc1ccccc1OC |
| 159 to 160 °C | COc1nc2ccc(Br)cc2c2c1C(C)(O)c1ccccc1-2 (stereo not given) |
| 96 to 97 °C | CCCCCCCCCCCCCCCc1ccc(C(=O)O)c(O)c1 |
| 50.5 to 51.5 °C | O=[N+]([O-])c1cc(I)cc(CF)c1 |
| 60 °C | C=Cc1cc(OCOCCOC)c(OCOCCOC)c(Cl)c1Cl |
| 132 to 134 °C | Cc1ncccc1CC(=NC#N)NC(NC(=O)Cc1ccc2ncccc2c1)C(C)(C)C (stereo not given) |
| 75 °C | COc1ccc(S(=O)(=O)C2(C(=O)NO)CCN(C(C)C)CC2)cc1 |
| 61 °C | Cc1ccc(C=C(C#N)c2ccccc2)cc1 |

| melting point | SMILES |
| --- | --- |
| 83 to 85 °C | c1ccc2c(c1)Oc1ccccc1C2NCc1ccncc1 |
| 105 to 106 °C | COC1OC(CO)C(O)C(OC(C)=O)C1Cl (stereo not given) |
| 228 °C | NS(=O)(=O)c1ccc(-c2cn(-c3nc(-c4ccc(F)c(F)c4)cc(C(F)(F)F)n3)cn2)s1 |
| 246 °C | Cc1ccc(C2=NN=CNC2C)cc1 (stereo not given) |
| 197 to 198 °C | Cn1c(=O)c(C(=O)O)c(-c2ccccc2Cl)c2cc(Cl)ccc21 |
| 82 to 85 °C | COc1cc(OC)c(C2CCN(C)C2CO)c(OC)c1 (stereo not given) |
| 154 °C | CN(C)NC(=O)c1nc([N+](=O)[O-])cn1C |
| 115 °C | CC1(C)OC(=O)c2c(cccc2OS(=O)(=O)C(F)(F)F)O1 |
| 103 to 104 °C | COC(=O)CSc1nc(N)c(C=O)nc1Cl |
| 189 to 191 °C | CC(=O)n1nc(OCC(=O)C(C)(C)C)c(-c2ccccc2)c1-c1ccc(S(C)(=O)=O)cc1 |
| 107 to 109 °C | CC(O)c1cccc(C=Cc2ccc3cc(F)ccc3n2)c1 (stereo not given) |
| 105 to 106 °C | CC(C)NC(C)C(=O)Nc1cccc2c1C(=O)c1c(NC(=O)C(C)NC(C)C)cccc1C2=O (stereo not given) |
| 180 to 182 °C | O=C(c1ccc(OC(F)(F)F)cc1)N1CCc2cc(S(=O)(=O)N3CC(c4ccccc4)NC3=O)ccc21 (stereo not given) |
| 122 to 123 °C | Clc1ccc(NN=Cc2ccccc2)cc1 |
| 108 to 109 °C | COc1ccc([N+](=O)[O-])cc1C(=O)NCc1ccc(C(F)(F)F)cc1 |
| 203 to 204 °C | O=C(Nc1ccc2c(c1)NCCC2)c1cc2cc(C(F)(F)F)ccc2n1Cc1cccc(F)c1 |
| 63.5 to 64.5 °C | COc1cc(C(C)(C)C)c2c(c1)C(C)(C)C(=O)O2 |
| 177 °C | COc1c(C)c(=O)oc2cc(-c3nnc(C)s3)ccc12 |
| 169 to 171 °C | CCOC(=O)NC(=O)c1c(Cl)ccc2c(C(F)(F)F)c(OC)ccc12 |
| 127 to 129 °C | CCOC(=O)C(C#N)=Cc1c(OC)nc2c(C)cccn12 |
| 150 °C | CCCN(CCC)C1Cc2c[nH]c3ccc(C(=O)c4ccccc4)c(c23)C1 (stereo not given) |
| 152 to 154 °C | CCCC(=O)N1CCc2nnc(NN=C(C)C)cc2C1 |

| SMILES | melting point |
| --- | --- |
| CCOC(=O)Nc1nc(C)c(-c2nc3ccccc3c(=O)n2-c2ccccc2)s1 | 248 to 251 °C |
| COc1cccc2c1OC(CN1CC=C(c3c[nH]c4cc(F)ccc34)CC1)CO2 (stereo not given) | 184 to 185 °C |
| CN(C)C1CCc2c(c3ccccc3n2C)C1 (stereo not given) | > 300 °C |
| N#CC1CN1C(=O)NC(=O)c1ccccc1 (stereo not given) | 144 to 146 °C |
| COC(=O)COc1cc2ccccc2c2c1c(C(=O)C(N)=O)c(C)n2CC1CCCCC1 | 156 to 158 °C |
| N#Cc1nn(-c2c(Cl)cc(C(F)(F)F)cc2Cl)c(N2CCCC2)c1S(=O)(=O)C(F)(F)F | 187 to 189 °C |
